Consider two molecules from US20080207718A1, “Use of Fused Imidazole Derivatives to Mediate Ccr3 Related Conditions” (priority 2005, published 2008).

In this experiment the target is T1, human CCR-3 (Homo sapiens, UniProt P51677).
T1 construct: expressed in transfected cells; host or cells: rat basophil leukaemia (RBL-2H3) cells, membrane preparation
T1 sequence (P51677 1-355): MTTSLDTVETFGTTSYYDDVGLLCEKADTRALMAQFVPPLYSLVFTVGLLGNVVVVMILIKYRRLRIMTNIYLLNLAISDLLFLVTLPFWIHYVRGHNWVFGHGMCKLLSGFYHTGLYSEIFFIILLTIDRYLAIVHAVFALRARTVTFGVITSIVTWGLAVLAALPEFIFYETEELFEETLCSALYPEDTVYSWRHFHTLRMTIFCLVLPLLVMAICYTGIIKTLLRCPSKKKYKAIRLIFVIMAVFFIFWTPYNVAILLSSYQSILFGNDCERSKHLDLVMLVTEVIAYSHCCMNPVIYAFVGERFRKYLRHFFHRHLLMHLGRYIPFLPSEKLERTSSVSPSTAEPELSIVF
Kind of experiment: binding of [125I]-human eotaxin to human CCR3 (SPA, membranes of RBL-2H3 cells expressing CCR3). The conditions noted are these: 4 hours at room temperature, read-out: IC50 value (inhibition of eotaxin binding to CCR3). The method, then:
In this assay the effect of the compounds of the present invention on the binding of human eotaxin to human CCR-3 is determined. Recombinant cells expressing human CCR3 are captured by wheatgerm agglutinin (WGA) polyvinyltoluidene (PVT) SPA beads (available from Amersham), through a specific interaction between the WGA and carbohydrate residues of glycoproteins on the surface of the cells. [^125I]-human eotaxin (available from Amersham) binds specifically to CCR3 receptors bringing the [^125I]-human eotaxin in close proximity to the SPA beads. Emitted […] from the [^125I]-human eotaxin excite, by its proximity, the fluorophore in the beads and produce light.
Preparation of Assay Buffer: 5.96 g HEPES and 7.0 g sodium chloride are dissolved in distilled H2O and 1M aqueous CaCl2 (1 ml) and 1M aqueous MgCl2 (5 ml) are added. The pH is adjusted to 7.6 with NaOH and the solution made to a final volume of 1 L using distilled H2O. 5 g of bovine serum albumin and 0.1 g NaN3 are dissolved in the solution and the resulting buffer stored at 4° C. […]
The assay is performed in a final volume of 250 μl per well of an Optiplate™ microplate (ex Canberra Packard). […] The resulting scintillations are counted using a Canberra Packard TopCount™ scintillation counter, each well being counted for 1 minute. […]

Turning to `COc1ccc(OC)c(NC(=O)C[n+]2cc(-c3ccc(Cl)c(Cl)c3)n3c2CCC3)c1` [Example 322], the IC50 turned out to be 21 nM. For the molecule `O=C(C[n+]1cc(-c2ccc(Cl)c(Cl)c2)n2c1CCC2)Nc1ccc2c(c1)OCCO2` [Example 341], the IC50 amounted to 23 nM.
